The values below come from ChEMBL document CHEMBL3991601, “The target landscape of clinical kinase drugs” (Science, 2017).

The target in assay [1] is T1, Cytochrome c1, heme protein, mitochondrial (Homo sapiens, UniProt P08574).
T1 sequence (P08574 whole entry): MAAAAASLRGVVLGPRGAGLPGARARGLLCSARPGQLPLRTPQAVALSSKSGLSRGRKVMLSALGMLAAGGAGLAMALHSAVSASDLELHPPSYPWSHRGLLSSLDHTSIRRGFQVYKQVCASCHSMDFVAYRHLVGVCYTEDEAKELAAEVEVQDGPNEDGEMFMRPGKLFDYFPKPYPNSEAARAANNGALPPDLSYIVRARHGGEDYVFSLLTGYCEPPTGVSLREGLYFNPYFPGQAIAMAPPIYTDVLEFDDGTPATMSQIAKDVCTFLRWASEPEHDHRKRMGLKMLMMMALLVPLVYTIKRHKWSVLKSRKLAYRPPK

In assay [2] the target is S-adenosylmethionine synthase isoform type-2 (Homo sapiens, UniProt P31153).
Assay [3] addresses Glycogen synthase kinase-3 alpha (Homo sapiens, UniProt P49840).
For assay [4], the target named is Mitogen-activated protein kinase 9 (Homo sapiens, UniProt P45984).
In assay [5] the target is T2, ATP-dependent RNA helicase DDX42 (Homo sapiens, UniProt Q86XP3).
T2 sequence (Q86XP3 whole entry): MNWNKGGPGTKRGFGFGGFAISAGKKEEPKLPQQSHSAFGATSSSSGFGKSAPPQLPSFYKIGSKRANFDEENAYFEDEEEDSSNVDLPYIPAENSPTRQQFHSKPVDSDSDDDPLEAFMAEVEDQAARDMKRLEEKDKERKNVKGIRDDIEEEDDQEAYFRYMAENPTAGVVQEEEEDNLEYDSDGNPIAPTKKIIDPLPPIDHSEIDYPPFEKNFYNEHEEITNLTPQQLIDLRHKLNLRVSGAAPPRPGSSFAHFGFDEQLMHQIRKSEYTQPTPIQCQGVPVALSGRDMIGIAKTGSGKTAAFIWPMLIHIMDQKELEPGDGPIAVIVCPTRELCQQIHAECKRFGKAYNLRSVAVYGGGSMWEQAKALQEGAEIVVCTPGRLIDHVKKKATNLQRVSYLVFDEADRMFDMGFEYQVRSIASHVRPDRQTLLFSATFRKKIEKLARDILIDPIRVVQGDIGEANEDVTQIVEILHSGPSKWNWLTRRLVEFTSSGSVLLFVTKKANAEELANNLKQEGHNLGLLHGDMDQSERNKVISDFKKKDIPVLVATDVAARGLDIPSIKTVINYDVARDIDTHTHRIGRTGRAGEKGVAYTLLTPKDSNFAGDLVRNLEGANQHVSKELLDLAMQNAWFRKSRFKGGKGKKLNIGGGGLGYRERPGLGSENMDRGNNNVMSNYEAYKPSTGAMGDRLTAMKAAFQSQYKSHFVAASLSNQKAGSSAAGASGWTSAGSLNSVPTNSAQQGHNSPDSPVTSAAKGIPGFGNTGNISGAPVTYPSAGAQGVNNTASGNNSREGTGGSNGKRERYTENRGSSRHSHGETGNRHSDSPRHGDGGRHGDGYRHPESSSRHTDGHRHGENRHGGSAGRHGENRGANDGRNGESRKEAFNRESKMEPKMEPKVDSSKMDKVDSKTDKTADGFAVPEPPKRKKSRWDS

Assay [6] has as its target Cyclin-dependent kinase 2 (Homo sapiens, UniProt P24941).
Assay [7] deals with Calcium/calmodulin-dependent protein kinase type II subunit gamma (Homo sapiens, UniProt Q13555).
Assay [8] deals with T3, Ribosyldihydronicotinamide dehydrogenase [quinone] (Homo sapiens, UniProt P16083).
T3 sequence (P16083 whole entry): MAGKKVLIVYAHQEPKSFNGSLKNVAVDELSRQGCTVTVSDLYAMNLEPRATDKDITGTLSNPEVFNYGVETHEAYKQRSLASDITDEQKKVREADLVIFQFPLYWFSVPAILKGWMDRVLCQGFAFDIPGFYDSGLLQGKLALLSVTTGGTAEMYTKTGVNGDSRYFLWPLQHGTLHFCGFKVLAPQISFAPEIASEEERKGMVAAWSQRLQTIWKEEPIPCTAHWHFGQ

Another assay addresses T4, Aurora kinase A (Homo sapiens, UniProt O14965).
T4 sequence (O14965 whole entry): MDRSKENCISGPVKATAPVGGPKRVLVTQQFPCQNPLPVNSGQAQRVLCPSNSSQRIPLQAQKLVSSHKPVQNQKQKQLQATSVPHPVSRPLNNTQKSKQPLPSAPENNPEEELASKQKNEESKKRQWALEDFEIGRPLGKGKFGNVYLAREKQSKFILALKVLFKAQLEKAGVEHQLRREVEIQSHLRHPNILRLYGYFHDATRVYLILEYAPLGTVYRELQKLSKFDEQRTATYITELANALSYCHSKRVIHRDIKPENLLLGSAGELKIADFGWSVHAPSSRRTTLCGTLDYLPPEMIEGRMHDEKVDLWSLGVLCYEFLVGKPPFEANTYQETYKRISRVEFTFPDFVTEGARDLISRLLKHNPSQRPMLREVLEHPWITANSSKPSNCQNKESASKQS

Assay [9] concerns the target Putative heat shock protein HSP 90-beta 2 (Homo sapiens, UniProt Q58FF8).
Assay [10] addresses T5, Delta(24)-sterol reductase (Homo sapiens, UniProt Q15392).
T5 sequence (Q15392 whole entry): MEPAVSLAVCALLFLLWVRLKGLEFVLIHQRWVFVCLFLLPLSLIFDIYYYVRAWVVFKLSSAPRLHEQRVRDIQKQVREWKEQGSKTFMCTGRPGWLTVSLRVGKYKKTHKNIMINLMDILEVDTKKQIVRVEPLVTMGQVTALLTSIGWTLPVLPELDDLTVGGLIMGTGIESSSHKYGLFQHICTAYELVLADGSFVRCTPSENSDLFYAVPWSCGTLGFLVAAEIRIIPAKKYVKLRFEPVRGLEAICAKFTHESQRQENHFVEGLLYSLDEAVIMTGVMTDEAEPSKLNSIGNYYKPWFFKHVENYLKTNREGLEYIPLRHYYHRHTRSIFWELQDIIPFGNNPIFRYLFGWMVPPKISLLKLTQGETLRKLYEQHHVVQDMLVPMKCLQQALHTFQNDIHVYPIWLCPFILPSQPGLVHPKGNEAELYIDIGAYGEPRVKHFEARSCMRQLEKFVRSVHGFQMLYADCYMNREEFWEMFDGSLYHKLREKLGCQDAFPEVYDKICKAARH

The target in assay [11] is Protein kinase C delta type (Homo sapiens, UniProt Q05655).
The target of assay [12] is Casein kinase I isoform gamma-1 (Homo sapiens, UniProt Q9HCP0).

Calls of active or inactive are those of the source. For most assays here, no stated cut-off is given here; in the data, actives have a measured Kd and inactives only a lower limit.

The Kd is a measure of binding affinity in units of concentration.

Chain of Protein kinase C delta type (Q05655 whole entry, canonical isoform): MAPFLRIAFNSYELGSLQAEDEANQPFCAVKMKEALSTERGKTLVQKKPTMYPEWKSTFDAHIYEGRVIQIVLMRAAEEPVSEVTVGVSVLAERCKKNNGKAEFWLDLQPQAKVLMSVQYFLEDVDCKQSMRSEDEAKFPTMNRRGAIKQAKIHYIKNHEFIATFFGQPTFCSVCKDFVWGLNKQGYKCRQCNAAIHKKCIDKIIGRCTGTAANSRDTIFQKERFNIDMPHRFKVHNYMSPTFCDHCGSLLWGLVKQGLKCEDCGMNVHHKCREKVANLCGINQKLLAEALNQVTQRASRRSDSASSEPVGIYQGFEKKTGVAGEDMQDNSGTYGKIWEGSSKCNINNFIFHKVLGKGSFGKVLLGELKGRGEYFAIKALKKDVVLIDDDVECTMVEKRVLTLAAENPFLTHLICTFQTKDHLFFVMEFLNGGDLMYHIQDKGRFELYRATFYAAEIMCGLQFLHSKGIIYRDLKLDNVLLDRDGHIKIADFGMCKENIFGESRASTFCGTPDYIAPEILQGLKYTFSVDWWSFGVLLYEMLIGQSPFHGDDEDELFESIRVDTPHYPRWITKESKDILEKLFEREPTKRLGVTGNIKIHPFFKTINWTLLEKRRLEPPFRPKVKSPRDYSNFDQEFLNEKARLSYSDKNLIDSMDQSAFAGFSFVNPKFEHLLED
Chain of S-adenosylmethionine synthase isoform type-2 (P31153 whole entry, canonical isoform): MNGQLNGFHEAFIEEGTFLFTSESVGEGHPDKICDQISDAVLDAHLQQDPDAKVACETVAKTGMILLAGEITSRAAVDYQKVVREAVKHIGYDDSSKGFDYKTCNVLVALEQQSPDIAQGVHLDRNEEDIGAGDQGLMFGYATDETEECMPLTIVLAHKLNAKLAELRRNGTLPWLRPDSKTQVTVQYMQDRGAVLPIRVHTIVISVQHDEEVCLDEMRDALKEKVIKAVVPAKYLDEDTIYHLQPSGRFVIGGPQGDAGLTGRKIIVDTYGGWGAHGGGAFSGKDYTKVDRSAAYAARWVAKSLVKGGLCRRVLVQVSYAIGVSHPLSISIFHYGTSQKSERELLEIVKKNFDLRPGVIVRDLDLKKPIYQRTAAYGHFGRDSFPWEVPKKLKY
Chain of Calcium/calmodulin-dependent protein kinase type II subunit gamma (Q13555 whole entry): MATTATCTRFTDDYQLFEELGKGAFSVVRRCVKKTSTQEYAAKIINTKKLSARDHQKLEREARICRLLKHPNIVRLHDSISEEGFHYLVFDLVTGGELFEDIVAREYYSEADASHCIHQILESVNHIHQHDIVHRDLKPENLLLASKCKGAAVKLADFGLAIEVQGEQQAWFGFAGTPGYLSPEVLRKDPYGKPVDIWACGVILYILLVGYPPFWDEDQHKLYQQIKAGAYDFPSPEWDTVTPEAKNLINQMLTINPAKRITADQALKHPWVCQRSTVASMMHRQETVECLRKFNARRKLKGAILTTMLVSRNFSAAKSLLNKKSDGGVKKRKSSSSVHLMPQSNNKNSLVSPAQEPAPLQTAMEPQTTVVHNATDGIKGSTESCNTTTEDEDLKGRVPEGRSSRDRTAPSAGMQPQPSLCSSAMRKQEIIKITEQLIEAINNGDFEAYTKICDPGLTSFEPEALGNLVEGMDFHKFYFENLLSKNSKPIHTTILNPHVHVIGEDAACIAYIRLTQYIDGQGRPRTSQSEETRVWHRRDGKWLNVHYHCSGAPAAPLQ
Chain of Casein kinase I isoform gamma-1 (Q9HCP0 whole entry, canonical isoform): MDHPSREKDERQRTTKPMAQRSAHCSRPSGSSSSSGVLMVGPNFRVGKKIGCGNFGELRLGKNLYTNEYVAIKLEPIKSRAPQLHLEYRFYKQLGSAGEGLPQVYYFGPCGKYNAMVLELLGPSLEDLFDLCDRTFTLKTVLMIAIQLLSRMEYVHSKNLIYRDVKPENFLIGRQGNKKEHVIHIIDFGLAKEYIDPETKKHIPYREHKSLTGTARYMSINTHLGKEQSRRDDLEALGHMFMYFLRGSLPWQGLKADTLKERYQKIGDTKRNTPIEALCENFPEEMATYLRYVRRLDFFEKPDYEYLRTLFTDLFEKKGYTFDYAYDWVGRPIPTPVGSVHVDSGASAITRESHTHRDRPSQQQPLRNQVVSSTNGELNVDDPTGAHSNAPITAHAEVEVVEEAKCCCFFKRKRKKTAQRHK
Chain of Glycogen synthase kinase-3 alpha (P49840 whole entry): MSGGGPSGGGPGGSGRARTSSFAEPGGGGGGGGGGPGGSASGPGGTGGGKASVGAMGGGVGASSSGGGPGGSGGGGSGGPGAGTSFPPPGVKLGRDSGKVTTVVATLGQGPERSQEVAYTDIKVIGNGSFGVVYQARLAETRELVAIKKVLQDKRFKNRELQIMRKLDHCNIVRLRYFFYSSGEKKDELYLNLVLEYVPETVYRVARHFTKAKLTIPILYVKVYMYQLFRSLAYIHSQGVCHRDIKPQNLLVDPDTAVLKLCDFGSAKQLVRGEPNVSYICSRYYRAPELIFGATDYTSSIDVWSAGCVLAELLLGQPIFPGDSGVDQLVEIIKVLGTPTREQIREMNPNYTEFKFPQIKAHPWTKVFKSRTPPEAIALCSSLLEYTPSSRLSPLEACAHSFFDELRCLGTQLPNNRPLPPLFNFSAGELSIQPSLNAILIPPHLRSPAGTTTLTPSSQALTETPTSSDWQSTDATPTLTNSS
Chain of Mitogen-activated protein kinase 9 (P45984 whole entry): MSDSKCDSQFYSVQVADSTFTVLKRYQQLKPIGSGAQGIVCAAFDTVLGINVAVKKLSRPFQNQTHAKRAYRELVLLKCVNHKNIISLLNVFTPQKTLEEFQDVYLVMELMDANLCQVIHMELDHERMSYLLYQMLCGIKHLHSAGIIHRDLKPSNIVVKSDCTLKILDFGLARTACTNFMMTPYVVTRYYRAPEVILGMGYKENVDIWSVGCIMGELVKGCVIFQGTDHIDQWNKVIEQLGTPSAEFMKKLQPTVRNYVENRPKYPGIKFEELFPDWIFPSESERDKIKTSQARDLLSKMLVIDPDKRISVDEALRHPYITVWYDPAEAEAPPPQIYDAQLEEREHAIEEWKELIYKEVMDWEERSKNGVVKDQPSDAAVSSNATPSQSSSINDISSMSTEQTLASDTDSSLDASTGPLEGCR
Chain of Putative heat shock protein HSP 90-beta 2 (Q58FF8 whole entry): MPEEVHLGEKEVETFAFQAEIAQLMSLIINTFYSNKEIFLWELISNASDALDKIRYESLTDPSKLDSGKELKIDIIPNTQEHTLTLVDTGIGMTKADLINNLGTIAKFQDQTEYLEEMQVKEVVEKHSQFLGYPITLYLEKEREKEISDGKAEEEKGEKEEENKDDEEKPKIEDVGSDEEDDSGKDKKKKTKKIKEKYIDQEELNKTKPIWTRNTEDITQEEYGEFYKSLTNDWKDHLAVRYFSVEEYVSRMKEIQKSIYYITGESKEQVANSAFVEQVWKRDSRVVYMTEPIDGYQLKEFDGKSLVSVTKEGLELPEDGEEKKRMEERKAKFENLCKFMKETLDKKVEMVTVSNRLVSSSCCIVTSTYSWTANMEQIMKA

Regarding `Cc1cccc(-c2nn3c(c2-c2ccnc4ccc(C(N)=O)cc24)CCC3)n1` [GALUNISERTIB], the Kd in assay [1], in assay [2], in [3], in assay [4], in [5] and in [6] was > 30 µM (inactive) each time. Further, the Kd (in assay [7]; in assay [8]; at Aurora kinase A; in [9]; in [10]; in assay [11]) was > 30 µM (inactive) throughout. The Kd in [12] was > 30 µM (inactive).
With `CNC(=O)c1nn(C)c2c1C(C)(C)Cc1cnc(Nc3ccc(N4CCN(C)CC4)cc3)nc1-2` [MILCICLIB], the Kd in [1] is > 30 µM (inactive); in assay [2], > 30 µM (inactive); in [3] it was > 30 µM (inactive); in assay [4], > 30 µM (inactive); in [5] it was > 30 µM (inactive); in assay [6], 0.739 µM (active). The Kd (in assay [7]; in [8]; at Aurora kinase A; in assay [9]; in assay [10]; in assay [11]) was > 30 µM (inactive) each time. In addition, the Kd in assay [12] was > 30 µM (inactive).
For `NC1(c2ccc(-c3nc4ccn5c(=O)[nH]nc5c4cc3-c3ccccc3)cc2)CCC1` [MK-2206], the Kd in assay [1], in [2], in assay [3], in assay [4], in assay [5] and in assay [6] was > 30 µM (inactive) throughout. The Kd (in [7]; in assay [8]; on Aurora kinase A; in assay [9]; in assay [10]; in [11]) was > 30 µM (inactive) throughout. In addition, the Kd in assay [12] was > 30 µM (inactive).
On to `CN(C[C@@H]1COCCO1)S(=O)(=O)Nc1ccc2ccc3ncc(-c4cnn(C)c4)cc3c(=O)c2c1` [MK-2461], for which the Kd in assay [1] is > 30 µM (inactive); in [2], > 30 µM (inactive); in assay [3], > 30 µM (inactive); in assay [4], 1.93 µM (active); in assay [5], > 30 µM (inactive); in assay [6], > 30 µM (inactive). Further, the Kd was > 30 µM (inactive) in [7]; 52.6 µM (active) in [8]; > 30 µM (inactive) at Aurora kinase A; > 30 µM (inactive) in assay [9]; > 30 µM (inactive) in assay [10]; > 30 µM (inactive) in [11]. For the same compound, the Kd in assay [12] is > 30 µM (inactive).
For the compound `Cn1cc(-c2cnc3ccc4ccc(CS(=O)(=O)NCc5ccccn5)cc4c(=O)c3c2)cn1` [MK-8033], the Kd in assay [1], in assay [2], in assay [3], in assay [4], in assay [5] and in assay [6] was > 30 µM (inactive) each time. Further, the Kd (in assay [7]; in [8]; at Aurora kinase A; in assay [9]; in assay [10]; in [11]) was > 30 µM (inactive) each time. In addition, the Kd in assay [12] is > 30 µM (inactive).
With `CCCCCCCCCCCCCCCCCCOP(=O)([O-])OC1CC[N+](C)(C)CC1` [PERIFOSINE], the Kd in [1], in [2], in [3], in [4], in [5] and in assay [6] was > 30 µM (inactive) each time. Further, the Kd (in assay [7]; in assay [8]; on Aurora kinase A; in [9]; in assay [10]; in [11]) was > 30 µM (inactive) throughout. Moreover, in [12], the Kd is > 30 µM (inactive).
For the compound `Cc1cnc(NC(=O)Nc2cc(Br)c(C)cc2OC[C@@H]2CNCCO2)cn1` [RABUSERTIB], the Kd in [1], in assay [2], in [3], in assay [4], in [5] and in [6] was > 30 µM (inactive) each time. Further, the Kd (in [7]; in assay [8]; at Aurora kinase A; in assay [9]; in assay [10]; in assay [11]) was > 30 µM (inactive) in each case. In [12], the Kd was > 30 µM (inactive).
On to `N#CC1(c2ccc(NC(=O)c3cccnc3NCc3ccncc3)cc2)CCCC1` [RIVOCERANIB], for which the Kd in assay [1], in assay [2], in [3], in assay [4], in assay [5] and in assay [6] was > 30 µM (inactive) throughout. For the same compound, the Kd (in [7]; in assay [8]; at Aurora kinase A; in [9]; in assay [10]; in assay [11]) was > 30 µM (inactive) each time. The Kd in assay [12] is > 30 µM (inactive).
